Laboratory results published in US20020035125A1, “Therapeutic combination” (priority 2000, published 2002).

Details: 100% relative humidity over 48 hours

Hygroscopicity: Non-hygroscopic
SMILES: CCOC(=O)N1c2ccc(C(F)(F)F)cc2[C@@H](N(Cc2cc(C(F)(F)F)cc(C(F)(F)F)c2)C(=O)OC)C[C@H]1CC [Example 9, Anhydrous (−)-(2R,4S)-4-[(3,5-Bis-trifluoromethyl-benzyl)-methoxycarbonyl-amino]-2-ethyl-6-trifluoromethyl-3,4-dihydro-2H-quinoline-1-carboxylic Acid Ethyl Ester]
